# Legend:
# [1] = test system: Staphylococcus aureus-SMITH (GC 4543); assay: acute lethal infection in mice; assay type: in vivo; details: acute lethal infection, female CD-1 mice, intraperitoneal challenge, intravenous 30 min. after infection, 7 day survival
# Procedure, shortened: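 Survival at 7 days, pooled from three independent tests, yields ED50 values. Treatment is intravenous, 30 min after ip infection of female CD-1 mice, using an inoculum lethal to untreated controls within 24-48 hr.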
# Enterococcus sp. = assay: in vitro antibacterial evaluation, MIC by broth dilution; assay type: cell-based; details: broth dilution, 18 hours at 35° C.
# Procedure, shortened: (§1)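 MIC = lowest antibiotic concentration preventing visible growth; inoculum 5×10^5 CFU/mL; drug range 64-0.06 μg/mL; Muller-Hinton II […]; NCCLS M7-A2 guidance.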
# Staphylococcus sp. = assay: as above; assay type: cell-based; details: broth dilution, 18 hours at 35° C.
# Procedure, shortened: as §1
# Escherichia coli = assay: as above; assay type: cell-based; details: 18 hours at 35° C.
# Procedure, shortened: as §1
# Streptococcus sp. = assay: as above; assay type: cell-based; details: broth dilution, 18 hours at 35° C.
# Procedure, shortened: as §1
structure (smiles),measurement,setting,value
"COc1cccc(C2OCC3OC(OC4C(CO)OC(Oc5ccc(CC6NC(=O)C(C(C)c7ccccc7)NC(=O)CNC(=O)C(CO)NC(=O)C(C(O)C7CNC(=N)N7C7OC(CO)C(O)C(O)C7O)NC(=O)C(C(O)C7CNC(=N)N7)NC6=O)cc5)C(O)C4O)C(O)C(O)C3O2)c1 (stereo not drawn) [Example 137, Cyclo[glycyl-β-methylphenylalanyl-O-[4-O-[4,6-O-(3-methoxybenzylidene)hexopyranosyl]-hexopyranosyl]tyrosyl-3-(2-iminoimidazolidin-4-yl)seryl-3-(3-hexopyranosyl-2-iminoimidazolidin-4-yl)serylseryl]]","median effective dose (ED50), Staphylococcus aureus-SMITH (GC 4543)",[1],0.24 mg/kg
same,MIC Enterococcus avium (GC 4558),Enterococcus sp.; Enterococcus avium (GC 4558),4 to 8 µg/mL
same,MIC Enterococcus faecalis (ATCC 29212),Enterococcus sp.; Enterococcus faecalis (ATCC 29212),4 to 8 µg/mL
same,MIC Enterococcus faecalis (GC 2242),Enterococcus sp.; Enterococcus faecalis (GC 2242),4 to 8 µg/mL
same,MIC Enterococcus faecalis (GC 2691),Enterococcus sp.; Enterococcus faecalis (GC 2691),4 to 8 µg/mL
same,MIC Enterococcus faecalis (GC 3059),Enterococcus sp.; Enterococcus faecalis (GC 3059),4 to 8 µg/mL
same,MIC Enterococcus faecalis (GC 4552),Enterococcus sp.; Enterococcus faecalis (GC 4552),4 to 8 µg/mL
same,MIC Enterococcus faecalis (GC 4553),Enterococcus sp.; Enterococcus faecalis (GC 4553),4 to 8 µg/mL
same,MIC Enterococcus faecalis (GC 4554),Enterococcus sp.; Enterococcus faecalis (GC 4554),4 to 8 µg/mL
same,MIC Enterococcus faecalis (GC 6189),Enterococcus sp.; Enterococcus faecalis (GC 6189),4 µg/mL
same,MIC Enterococcus faecium (GC 2243),Enterococcus sp.; Enterococcus faecium (GC 2243),4 to 8 µg/mL
same,MIC Enterococcus faecium (GC 4556),Enterococcus sp.; Enterococcus faecium (GC 4556),4 to 8 µg/mL
same,MIC Enterococcus faecium (GC 4557),Enterococcus sp.; Enterococcus faecium (GC 4557),2 to 4 µg/mL
same,MIC Enterococcus faecalis (ATCC 29212),Enterococcus sp.; strain ATCC 29212,4 to 8 µg/mL
same,MIC Enterococcus faecalis (GC 2242),Enterococcus sp.; strain GC 2242,4 to 8 µg/mL
same,MIC Enterococcus faecium (GC 2243),Enterococcus sp.; strain GC 2243,4 to 8 µg/mL
same,MIC Enterococcus faecalis (GC 2691),Enterococcus sp.; strain GC 2691,4 to 8 µg/mL
same,MIC Enterococcus faecalis (GC 3059),Enterococcus sp.; strain GC 3059,4 to 8 µg/mL
same,MIC Enterococcus faecalis (GC 4552),Enterococcus sp.; strain GC 4552,4 to 8 µg/mL
same,MIC Enterococcus faecalis (GC 4553),Enterococcus sp.; strain GC 4553,4 to 8 µg/mL
same,MIC Enterococcus faecalis (GC 4554),Enterococcus sp.; strain GC 4554,4 to 8 µg/mL
same,MIC Enterococcus faecium (GC 4556),Enterococcus sp.; strain GC 4556,4 to 8 µg/mL
same,MIC Enterococcus faecium (GC 4557),Enterococcus sp.; strain GC 4557,2 to 4 µg/mL
same,MIC Enterococcus avium (GC 4558),Enterococcus sp.; strain GC 4558,4 to 8 µg/mL
same,MIC Enterococcus faecalis (GC 6189),Enterococcus sp.; strain GC 6189,4 µg/mL
same,MIC Staphylococcus aureus (ATCC 29213),Staphylococcus sp.,1 to 2 µg/mL
same,MIC Staphylococcus aureus (GC 1131),Staphylococcus sp.,2 µg/mL
same,MIC Staphylococcus aureus (GC 3051),Staphylococcus sp.,1 to 2 µg/mL
same,MIC Staphylococcus aureus (GC 3053),Staphylococcus sp.,2 to 4 µg/mL
same,MIC Staphylococcus aureus (GC 4541),Staphylococcus sp.,1 to 2 µg/mL
same,MIC Staphylococcus aureus (GC 4542),Staphylococcus sp.,1 to 2 µg/mL
same,MIC Staphylococcus aureus (GC 4544),Staphylococcus sp.,2 µg/mL
same,MIC Staphylococcus aureus (GC 4545),Staphylococcus sp.,2 to 4 µg/mL
same,MIC Staphylococcus aureus (GC 1131),"Staphylococcus sp.; inoculum 5×10^5 CFU/mL, strain GC 1131",2 µg/mL
same,MIC Staphylococcus aureus (ATCC 29213),Staphylococcus sp.; strain ATCC 29213,1 to 2 µg/mL
same,MIC Staphylococcus aureus (GC 3051),Staphylococcus sp.; strain GC 3051,1 to 2 µg/mL
same,MIC Staphylococcus aureus (GC 3053),Staphylococcus sp.; strain GC 3053,2 to 4 µg/mL
same,MIC Staphylococcus aureus (GC 4541),Staphylococcus sp.; strain GC 4541,1 to 2 µg/mL
same,MIC Staphylococcus aureus (GC 4542),Staphylococcus sp.; strain GC 4542,1 to 2 µg/mL
same,MIC Staphylococcus aureus-SMITH (GC 4543),Staphylococcus sp.; strain GC 4543,1 to 2 µg/mL
same,MIC Staphylococcus aureus (GC 4544),Staphylococcus sp.; strain GC 4544,2 µg/mL
same,MIC Staphylococcus aureus (GC 4545),Staphylococcus sp.; strain GC 4545,2 to 4 µg/mL
same,MIC Staphylococcus haemolyticus (GC 4546),Staphylococcus sp.; strain GC 4546,1 µg/mL
same,MIC Coagulase Negative Staphylococcus (GC 4547),Staphylococcus sp.; strain GC 4547,1 to 2 µg/mL
same,MIC Coagulase Negative Staphylococcus (GC 4548),Staphylococcus sp.; strain GC 4548,0.5 to 2 µg/mL
same,MIC Coagulase Negative Staphylococcus (GC 4549),Staphylococcus sp.; strain GC 4549,0.5 to 1 µg/mL
same,MIC Coagulase Negative Staphylococcus (GC 4551),Staphylococcus sp.; strain GC 4551,1 to 2 µg/mL
same,MIC Coagulase Negative Staphylococcus (GC 6257),Staphylococcus sp.; strain GC 6257,1 µg/mL
same,MIC Staphylococcus aureus-SMITH (GC 4543),Staphylococcus sp.; strain SMITH GC 4543,1 to 2 µg/mL
same,MIC Escherichia coli (ATCC 25922),Escherichia coli; strain ATCC 25922,64 µg/mL
same,MIC Escherichia coli (GC 4559),Escherichia coli; strain GC 4559,32 to 64 µg/mL
same,MIC Escherichia coli (GC 4560),Escherichia coli; strain GC 4560,1 µg/mL
same,MIC Streptococcus agalactiae (GC 4564),Streptococcus sp.; Streptococcus agalactiae (GC 4564),0.5 µg/mL
same,MIC Streptococcus pneumoniae (ATCC 6301),Streptococcus sp.; Streptococcus pneumoniae (ATCC 6301),0.12 µg/mL
same,MIC Streptococcus pneumoniae (GC 1894),Streptococcus sp.; Streptococcus pneumoniae (GC 1894),<0.06 µg/mL
same,MIC Streptococcus pneumoniae (GC 4565),Streptococcus sp.; Streptococcus pneumoniae (GC 4565),0.25 µg/mL
same,MIC Streptococcus pyogenes (GC 4563),Streptococcus sp.; Streptococcus pyogenes (GC 4563),0.25 µg/mL
same,MIC Streptococcus pneumoniae (ATCC 6301),Streptococcus sp.; strain ATCC 6301,0.12 µg/mL
same,MIC Streptococcus pneumoniae (GC 1894),Streptococcus sp.; strain GC 1894,<0.06 µg/mL
same,MIC Streptococcus pyogenes (GC 4563),Streptococcus sp.; strain GC 4563,0.25 µg/mL
same,MIC Streptococcus agalactiae (GC 4564),Streptococcus sp.; strain GC 4564,0.5 µg/mL
same,MIC Streptococcus pneumoniae (GC 4565),Streptococcus sp.; strain GC 4565,0.25 µg/mL
